# System: mast cells
# Test: Inhibitory effect on histamine release from rat peritoneal mast cells stimulated with compound 48/80 (histamine by HPLC, diazotation method)
# Assay type: cell-based
# Conditions: histamine release induced by compound 48/80, mean of three measurements; for inhibition at 10 µg/mL: sample concentration 10 μg/ml
# Source text: (1) With regard to the following substances, an inhibitory effect on type I allergic reaction was investigated by investigating an inhibitory effect on histamine release from mast cells. • <1> Adenosine • <2> Guanosine • <3> Cytidine • <4> Uridine • <5> Adenosine monophosphate (AMP) • <6> Adenosine diphosphate (ADP) • <7> Adenosine triphosphate (ATP) • <8> Adenosine derived from Phellinus linteus (described later as Compound A) • <9> N-hydroxy-N-methyl-adenosine derived from Phellinus linteus (described later as Compound B) • <10> A commercially available histamine inhibitor (brand name: Intal, major component: disodium cromoglycate, manufacturer: Fujisawa Pharmaceutical Co., Ltd.)
# (a) For a test animal, a male Wister rat (at 6 to 8 weeks of age) was used.
# After a rat was sacrificed by exsanguination under anesthesia with ether, 15 ml of Tyrode Buffer was injected into the peritoneal cavity of the rat and intraperitoneal cavity fluid was recovered. Ten ml of Tyrode Buffer was further injected into the peritoneal cavity of the rat. Intraperitoneal cavity fluid was further recovered and combined with the intraperitoneal fluid recovered before. This intraperitoneal fluid was centrifuged at 800 rpm for 10 minutes at 4° C. and the supernatant was removed and filtrated.
# Further, cell suspension, to which Tyrode Buffer was added, was centrifuged at 800 rpm for 10 minutes at 4° C., the supernatant was removed and the cells were homogenized. This cell suspension was measured with an erythrocytometer, and prepared to be 8×10^6 cells/ml for use.
# The cell suspension (370 μl) dispensed into a 1.2 ml-microtube was pre-incubated in a water bath at 37° C.
# Ten minutes later, 20 μl of sample prepared at each concentration was added.
# Further, 10 minutes later, 10 μl of compound 48/80 (a mast cell stimulation agent; manufactured by Wako Pure Chemical Industries, Ltd.) (0.5 μg/ml), which is an allergy inducer, was added.
# Fifteen minutes later, the reaction was terminated on ice.
# Further, to remove the mast cells, centrifugation was carried out at 13,000 rpm for 15 minutes at 4° C. and the supernatant was recovered.
# This supernatant was used as a sample for diazotation in HPLC analysis.
# An equal amount of 20 mM p-nitroaniline hydrochloric acid solution and 200 mM sodium nitrite aqueous solution were mixed well (diazo reagent).
# To 10 μl of the diazo reagent, 20 μl of the foregoing sample for (histamine) diazotation was added and mixed well by using a vortex mixer.
# Further, 30 μl of sodium carbonate ethanol solution was added and mixed well by using a vortex mixer.
# This solution (20 μl) was used in HPLC analysis.
# (c) The analysis of histamine was carried out by the diazotation method (Specific Determination of Histamine in Fish by High-performance Liquid Chromatography after Diazo Coupling: Biosci. Biotech. Biochem. 59 (7) 1208-1210 (1995)).
# (4) The results of the inhibitory effects on histamine release from mast cells of a specified concentration of <1> adenosine, <2> guanosine, <3> cytidine, <4> uridine, <5> adenosine monophosphate (AMP), <6> adenosine diphosphate (ADP), <7> adenosine triphosphate (ATP) (<1> to <7> substances were from Wako Pure Chemical Industries, Ltd.), <8> adenosine derived from Phellinus linteus (described later as Compound A), <9> N-hydroxy-N-methyl-adenosine derived from Phellinus linteus (described later as Compound B), and <10> a commercially available histamine inhibitor (brand name: Intal, major component: sodium cromoglycate, manufacturer: Fujisawa Pharmaceutical Co., Ltd.) are shown in Table 2. The inhibition ratios shown in Table 2 are mean values of three measurement values in each case.
# The value of inhibition ratio was calculated from the following calculation formula.
# Calculation Formula: (1−(peak integral value of sample)/(peak integral value of control))×100
# [1] = Rattus norvegicus, Mast cell, sample concentration 5 μg/ml, read-out: Inhibition Ratio (%)
# [2] = Rattus norvegicus, Mast cell, read-out: Inhibition Ratio (%)
structure (smiles),measurement,setting,value
"Nc1ncnc2c1ncn2[C@@H]1O[C@H](CO)[C@@H](O)[C@H]1O [Adenosine derived from Phellinus linteus, adenosine]",inhibition at 5 µg/mL,[1],41.5%
"Nc1ncnc2c1ncn2[C@@H]1O[C@H](COP(=O)(O)OP(=O)(O)O)[C@@H](O)[C@H]1O [Adenosine diphosphate, adenosine 5′-diphosphate]",inhibition at 10 µg/mL,[2],47.8%
"Nc1ncnc2c1ncn2[C@@H]1O[C@H](COP(=O)(O)O)[C@@H](O)[C@H]1O [Adenosine monophosphate, adenosine 5′-monophosphate]",inhibition at 10 µg/mL,[2],54.9%
"Nc1ncnc2c1ncn2[C@@H]1O[C@H](COP(=O)(O)OP(=O)(O)OP(=O)(O)O)[C@@H](O)[C@H]1O [Adenosine triphosphate, adenosine 5′-triphosphate]",inhibition at 10 µg/mL,[2],40%
Nc1ncnc2c1ncn2[C@@H]1O[C@H](CO)[C@@H](O)[C@H]1O [Adenosine],inhibition at 1 µg/mL,"Rattus norvegicus, Mast cell, sample concentration 1 μg/ml, read-out: Inhibition Ratio (%)",27.5%
same,inhibition at 20 µg/mL,"Rattus norvegicus, Mast cell, sample concentration 20 μg/ml, read-out: Inhibition Ratio (%)",59.3%
same,inhibition at 50 µg/mL,"Rattus norvegicus, Mast cell, sample concentration 50 μg/ml, read-out: Inhibition Ratio (%)",74.7%
same,Inhibition Ratio (%),sample concentration 5 μg/ml,43.8%
Nc1ccn([C@@H]2O[C@H](CO)[C@@H](O)[C@H]2O)c(=O)n1 [Cytidine],inhibition at 5 µg/mL,[1],38%
Nc1nc2c(ncn2[C@@H]2O[C@H](CO)[C@@H](O)[C@H]2O)c(=O)[nH]1 [Guanosine],inhibition at 5 µg/mL,[1],39%
CN(O)c1ncnc2c1ncn2[C@@H]1O[C@H](CO)[C@@H](O)[C@H]1O [N-hydroxy-N-methyl-adenosine],inhibition at 5 µg/mL,[1],27%
O=c1ccn([C@@H]2O[C@H](CO)[C@@H](O)[C@H]2O)c(=O)[nH]1 [Uridine],inhibition at 5 µg/mL,[1],34%
